Laboratory results as given in patent US8138118B2, “Use of hydroxyaromatics as safeners” (Bayer CropScience AG, priority 2003, dated 2012).

What was measured:
Format in all cases: in vivo
[1] = tested on: Glycine max (soybean), cv. 'Lambert'; test: Pre-emergence application of herbicide after seed dressing with safener, crop damage; conditions: for % damage in GLXMA: four weeks; for Safener action as % damage reduction in crop plants: GLXMA
Description: (§1) The number of crop plant seeds required for each application rate of safener was calculated. Sufficient seeds were weighed out into glass bottles having a screw-on lid. The volume of the glass bottles was approximately twice that of the seeds weighed out. The safeners were formulated as 20 percent strength water-dispersible powders. These formulations were weighed out to give the required application rates (g of a.i./kg of seed). The samples were added to the seed in the glass containers, and sufficient water to form a suitable seed dressing was then added. The glass bottles were closed and then mounted in an overhead shaker (which turns the bottles at moderate speed for a period of up to one hour) so that the seeds were uniformly covered with the seed dressing. The bottles were opened and the seed was ready for use in pre-emergence or post-emergence experiments, as described below. The seeds which had been treated with safener and untreated seeds as controls were sown in sandy loam soil in round plastic pots of a diameter of 13 cm and covered with a layer of sandy loam of a thickness of about 1 cm. The herbicides in the form of liquid (for example emulsion concentrates) or dry (for example water-dispersible powders) formulations were diluted with deionized water to the required concentrations and applied to the surface of the soil with a spray bar using a water application rate of 300 liters per hectare. In the two experiments shown below (results see tables 2.2.1 and 2.2.2), the herbicide isoxaflutole was used as an aqueous suspension concentrate. The pots were placed in a greenhouse under favorable growth conditions. Visual scoring of the herbicidal action was carried out four weeks after the herbicide application. Evaluation was carried out on a percentage basis by comparison with untreated control plants (0%=no noticeable effect compared with the untreated plant, […]).

[2] = tested on: Zea mays (corn), cv. 'Lorenzo'; test: as above; conditions: for % damage in ZEAMA: four weeks; for Safener action as % damage reduction in crop plants: ZEAMA
Description: as §1

[3] = tested on: Setaria viridis; test: Pre-emergence application of herbicide and safener by the tank mix method, herbicidal action on weed; conditions: four weeks
Description: (§2) Seeds of various crop plants and weed species were sown in sandy loam soil in round plastic pots of a diameter of 13 cm and covered with a layer of sandy loam of a thickness of about 1 cm. Herbicides and safeners in the form of liquid (for example emulsion concentrates) or dry (for example water-dispersible powders) formulations were diluted with deionized water to the required concentration and applied to the surface of the soil with a spray bar using a water application rate of 300 liters per hectare. In the experiment shown below, the safeners were used as 20 percent strength water-dispersible powders and the herbicide isoxaflutole was used as an aqueous suspension concentrate (see table 1.1.1). The pots were placed in a greenhouse under favorable growth conditions. Visual scoring of the herbicidal action was carried out four weeks after the herbicide application. Evaluation was carried out on a percentage basis by comparison with untreated control plants (0%=no noticeable effect compared with the untreated plant, 100%=treated plant dies).

[4] = tested on: Chenopodium album; test: as above; conditions: four weeks
Description: as §2

[5] = tested on: Zea mays (corn), cv. 'Lorenzo'; test: Pre-emergence application of herbicide and safener by the tank mix method, crop damage; conditions: for Safener action as % damage reduction in crop plants: ZEAMA, safener 250 g a.i./ha + herbicide H1 100 g a.i./ha
Description: as §2

[6] = tested on: Zea mays (corn), cv. 'Lorenzo'; test: Post-emergence application of herbicide and safener by the tank mix method, crop damage; conditions: for Safener action as % damage reduction in crop plants: ZEAMA, safener 250 g a.i./ha + herbicide H2 40 g a.i./ha; for % damage in ZEAMA: four weeks
Text: (§3) Seeds of various crop plants and weed species were sown in sandy loam soil in round plastic pots of a diameter of 13 cm and covered with a layer of sandy loam of a thickness of about 1 cm. The pots were placed in a greenhouse under favorable growth conditions for a period of about two to three weeks, allowing the plants to reach a growth stage of 2 to 4 leaves. The herbicides in the form of liquid (for example emulsion concentrates) or dry (for example water-dispersible powders) formulations were mixed with a standard additive (based on rapeseed oil methyl ester), diluted with deionized water to the required concentrations and applied to the green parts of the plants and the uncovered part of the soil surface with a spray bar using a water application rate of 300 liters per hectare. In the experiment shown below, safener and the herbicide foramsulfuron were in each case used as 20 percent strength water-dispersible powder (results see table 1.2.1). The pots were placed in a greenhouse under favorable growth conditions. Visual scoring of the herbicidal action was carried out four weeks after the herbicide application. Evaluation was carried out on a percentage basis by comparison with untreated control plants (0%=no noticeable effect compared with the untreated plant, 100%=treated plant dies).

[7] = tested on: Zea mays (corn), cv. 'Lorenzo'; test: Post-emergence application of herbicide after seed dressing with safener, crop damage; conditions: for Safener action as % damage reduction in crop plants: ZEAMA; for % damage in ZEAMA: four weeks
Description: The number of crop plant seeds required for each application rate of safener was calculated. Sufficient seeds were weighed out into glass bottles having a screw-on lid. The volume of the glass bottles was approximately twice that of the seeds weighed out. The safeners were formulated as 20 percent strength water-dispersible powders. These formulations were weighed out to give the required application rates (g of a.i./kg of seed). The samples were added to the seed in the glass containers, and sufficient water to form a suitable seed dressing was then added. The glass bottles were closed and then mounted in an overhead shaker (which turns the bottles at moderate speed for a period of up to one hour) so that the seeds were uniformly covered with the seed dressing. The bottles were opened and the seed was ready for use in pre-emergence or post-emergence experiments, as described below. The seeds treated with safener and untreated seeds were sown in sandy loam soil in round plastic pots of a diameter of 13 cm and covered with a layer of sandy loam of a thickness of about 1 cm. The pots were placed in a greenhouse under favorable growth conditions for a period of about two to three weeks, allowing the plants to reach a growth stage of 2 to 4 leaves. The herbicides in the form of liquid (for example emulsion concentrates) or dry (for example water-dispersible powders) formulations were mixed with a standard additive (based on rapeseed oil methyl ester), diluted with deionized water to the required concentrations and applied to the green parts of the plants and the uncovered part of the soil surface with a spray bar using a water application rate of 300 liters per hectare. In the experiment shown below, the herbicide foramsulfuron was used as 20 percent strength water-dispersible powder (results see table 2.3.1). The pots were placed in a greenhouse under favorable growth conditions. Visual scoring of the herbicidal action was carried out four weeks after the herbicide application. Evaluation was carried out on a percentage base by comparison with untreated control plants (0%=no noticeable effect compared with the untreated plant, 100%=treated plant dies).

[8] = tested on: Amaranthus retroflexus; test: Post-emergence application of herbicide and safener by the tank mix method, herbicidal action on weed; conditions: four weeks
Text: as §3

[9] = tested on: Setaria viridis; test: as above; conditions: four weeks
Text: as §3

[10] = herbicide H1 100 g a.i./ha pre-emergence, untreated seeds (no safener)
[11] = herbicide H1 100 g a.i./ha alone, no safener, pre-emergence
[12] = safener 250 g a.i./ha + herbicide H2 (foramsulfuron) 40 g a.i./ha, post-emergence tank mix
[13] = seed dressing with safener 1 g a.i./kg of seed, herbicide H1 100 g a.i./ha pre-emergence
[14] = seed dressing with safener 1 g a.i./kg of seed, then herbicide H1 100 g a.i./ha pre-emergence
[15] = seed dressing with safener 1 g a.i./kg of seed, herbicide H2 40 g a.i./ha post-emergence
[16] = seed dressing with safener 1 g a.i./kg of seed, then herbicide H2 40 g a.i./ha post-emergence
[17] = safener 250 g a.i./ha + herbicide H1 100 g a.i./ha, pre-emergence tank mix
[18] = safener 250 g a.i./ha + herbicide H2 40 g a.i./ha, post-emergence tank mix
[19] = safener 250 g a.i./ha + herbicide H1 (isoxaflutole) 100 g a.i./ha, pre-emergence tank mix, visual scoring four weeks after application
[20] = herbicide H2 40 g a.i./ha alone, no safener, post-emergence

Compound: CS(=O)(=O)c1cc(C(F)(F)F)ccc1C(=O)c1cnoc1C1CC1 [Herbicide H1, isoxaflutole, reference compound]
- % damage in GLXMA [1, 10]: 87%
- % damage in ZEAMA [2, 10]: 29%
- Herbicidal action in SETVI (in %) [3, 11]: 92%
- Herbicidal action in CHEAL (in %) [4, 11]: 90%
- % damage in ZEAMA ([5]; herbicide H1 100 g a.i./ha alone, no safener, pre-emergence, four weeks): 23%

Compound: O=C(O)c1ccc(F)cc1O [Comp. 253, 4-fluorosalicylic acid]
- Safener action as % damage reduction in crop plants ([6]; post-emergence tank mix): 82%
- % damage in ZEAMA [6, 12]: 7%
- Safener action as % damage reduction in crop plants [1, 13]: 63%
- % damage in GLXMA [1, 14]: 32%
- Safener action as % damage reduction in crop plants [2, 13]: 69%
- % damage in ZEAMA [2, 14]: 9%
- Safener action as % damage reduction in crop plants [7, 15]: 78%
- % damage in ZEAMA [7, 16]: 8%
- Herbicidal action in SETVI (in %) [3, 17]: 93%
- Herbicidal action in CHEAL (in %) [4, 17]: 90%
- Herbicidal action as % damage in AMARE [8, 18]: 91%
- Herbicidal action as % damage in SETVI [9, 18]: 93%
- Safener action as % damage reduction in crop plants ([5]; pre-emergence tank mix): 83%
- % damage in ZEAMA [5, 19]: 4%

Compound: O=C(O)c1ccc(O)cc1O [Comp. 588, 4-hydroxysalicylic acid]
- Safener action as % damage reduction in crop plants ([6]; post-emergence tank mix): 74%
- % damage in ZEAMA [6, 12]: 10%
- Safener action as % damage reduction in crop plants [1, 13]: 69%
- % damage in GLXMA [1, 14]: 27%
- Safener action as % damage reduction in crop plants [2, 13]: 59%
- % damage in ZEAMA [2, 14]: 12%
- Safener action as % damage reduction in crop plants [7, 15]: 73%
- % damage in ZEAMA [7, 16]: 10%
- Herbicidal action in SETVI (in %) [3, 17]: 97%
- Herbicidal action in CHEAL (in %) [4, 17]: 92%
- Herbicidal action as % damage in AMARE [8, 18]: 95%
- Herbicidal action as % damage in SETVI [9, 18]: 95%
- Safener action as % damage reduction in crop plants ([5]; pre-emergence tank mix): 61%
- % damage in ZEAMA [5, 19]: 9%

Compound: COc1cc(OC)nc(NC(=O)NS(=O)(=O)c2cc(NC=O)ccc2C(=O)N(C)C)n1 [Herbicide H2, foramsulfuron, reference compound]
- % damage in ZEAMA [6, 20]: 39%
- % damage in ZEAMA ([7]; herbicide H2 40 g a.i./ha post-emergence, untreated seeds (no safener)): 37%
- Herbicidal action as % damage in AMARE [8, 20]: 91%
- Herbicidal action as % damage in SETVI [9, 20]: 93%
